From the NIST ThermoML archive (doi:10.1016/j.jct.2014.07.018)

Experiment: molar heat capacity at constant pressure
Settings: 101.33 kPa, Vacuum adiabatic calorimetry

CCCCn1cc[n+](C)c1.[I-] [1-butyl-3-methylimidazolium iodide]
molar heat capacity at constant pressure [J/K/mol]
Settings | Crystal | Glass
4.858 K | 0.768 | –
5 K | 0.845 | 1.57
5.042 K | – | 1.601
5.112 K | 0.909 | –
5.32 K | – | 1.862
5.371 K | 1.07 | –
5.604 K | – | 2.149
5.638 K | 1.249 | –
5.895 K | – | 2.463
5.91 K | 1.452 | –
6.217 K | 1.701 | –
6.222 K | – | 2.842
6.56 K | 2.006 | –
6.586 K | – | 3.292
6.91 K | 2.343 | –
6.955 K | – | 3.776
7.265 K | 2.714 | –
7.328 K | – | 4.295
7.496 K | – | 4.532
7.625 K | 3.114 | –
7.705 K | – | 4.838
7.884 K | – | 5.11
7.99 K | 3.553 | –
8.267 K | – | 5.703
8.357 K | 4.021 | –
8.654 K | – | 6.323
8.728 K | 4.513 | –
9.042 K | – | 6.967
9.104 K | 5.04 | –
9.433 K | – | 7.63
9.483 K | 5.597 | –
9.825 K | – | 8.316
9.868 K | 6.177 | –
10 K | 6.39 | 8.62
10.33 K | – | 9.205
10.36 K | 6.957 | –
10.94 K | – | 10.33
10.95 K | 7.92 | –
11.56 K | 8.937 | 11.49
12.16 K | 9.99 | –
12.18 K | – | 12.66
12.77 K | 11.08 | –
12.8 K | – | 13.88
13.38 K | 12.19 | –
13.42 K | – | 15.11
14 K | 13.34 | –
14.05 K | – | 16.37
14.63 K | 14.54 | –
14.69 K | – | 17.68
15 K | 15.25 | 18.31
15.25 K | 15.73 | –
15.47 K | – | 19.26
15.99 K | 17.18 | –
16.42 K | – | 21.23
16.84 K | 18.83 | –
17.37 K | – | 23.19
17.7 K | 20.48 | –
18.32 K | – | 25.15
18.56 K | 22.1 | –
19.27 K | – | 27.09
19.42 K | 23.73 | –
20 K | 24.83 | 28.59
20.22 K | – | 29.03
20.29 K | 25.36 | –
21.48 K | – | 31.59
21.5 K | 27.65 | –
23.05 K | – | 34.73
23.06 K | 30.6 | –
24.62 K | 33.53 | –
24.63 K | – | 37.87
25 K | 34.2 | 38.6
26.19 K | 36.35 | –
26.21 K | – | 40.93
27.59 K | 38.83 | –
27.79 K | – | 43.88
29.09 K | 41.41 | –
29.96 K | – | 47.88
30 K | 42.93 | 47.93
30.68 K | 44.04 | –
32.35 K | – | 52.05
32.43 K | 46.84 | –
34.29 K | – | 55.25
34.33 K | 49.79 | –
35 K | 50.8 | 56.37
36.21 K | – | 58.25
36.25 K | 52.67 | –
38.13 K | – | 61.21
38.16 K | 55.41 | –
40 K | 58.01 | 64
40.04 K | – | 64.03
40.07 K | 58.07 | –
42.06 K | – | 66.96
42.08 K | 60.84 | –
44.18 K | – | 69.94
44.19 K | 63.71 | –
45 K | 64.77 | 71.05
46.3 K | 66.48 | 72.87
48.41 K | 69.11 | –
48.42 K | – | 75.66
50 K | 71.06 | 77.66
50.52 K | 71.72 | –
50.54 K | – | 78.37
52.64 K | 74.22 | –
52.66 K | – | 80.96
54.76 K | 76.59 | –
54.78 K | – | 83.48
56.88 K | 78.93 | –
56.91 K | – | 85.88
59.01 K | 81.2 | –
59.04 K | – | 88.27
60 K | 82.26 | 89.36
61.14 K | 83.4 | –
61.17 K | – | 90.59
63.27 K | 85.56 | –
63.31 K | – | 92.93
65.4 K | 87.69 | –
65.45 K | – | 95.14
67.54 K | 89.76 | –
67.59 K | – | 97.4
69.67 K | 91.79 | –
69.73 K | – | 99.56
70 K | 92.11 | 99.8
71.91 K | 93.89 | –
71.97 K | – | 101.8
74.26 K | 96.02 | –
74.32 K | – | 104.1
76.61 K | 98.12 | –
76.67 K | – | 106.3
78.96 K | 100.2 | –
